Laboratory results: patent US20130029956A1, “NEW METHOD” (ASTRAZENECA AB, priority 1997, published 2013)
Marks after values point to notes of the source that are not given here.

Key:
Assay type in all cases: in vivo, human (children six months to eight years)
[1] = system: plasma cortisol levels (HPA-axis function); assay: Basal and post-ACTH-stimulated plasma cortisol levels, Example 2; settings: 0.25 mg QD, 0.25 mg BID, 0.5 mg BID, 1.0 mg QD; baseline to week 12 versus placebo
Text: (§1) Safety variables were: (a) reported adverse events that could be due to the drug; (b) morning basal and post-ACTH-simulation effects on plasma cortisol levels (HPA-axis function) in a subset of patients; and (c) changes in physical examinations, vital signs and clinical laboratory tests, including oropharyngeal and nasal fungal cultures.
(§2) Analysis of variance was used to compare differences between treatment groups for all efficacy variables, with the exception of patient discontinuations from the study, which was analyzed using Fisher's exact test. Analysis of variance was also used for morning basal and post-ACTH-simulation effects on plasma cortisol levels. Descriptive statistics were used to present all other safety data.

[2] = system: asthmatic children; assay: Phase III study of four dose regimens of budesonide nebulizing suspension and placebo in asthmatic children (Example 2); parameters: Nighttime Asthma Symptom Score: scale not given here; FEV1: unit not given here; settings: for FEV1 / Evening PEF / Morning PEF / Daytime Asthma Symptom Score / Nighttime Asthma Symptom Score / Number of Days Use of Breakthrough Medication: adjusted mean change from baseline over 12 weeks; for proportion of patients discontinuing due to worsening asthma: placebo 26.3%; for total proportion of patients who were discontinued: placebo 39%
Description: The objectives of the study were to compare the relative efficacy and safety of budesonide in a nebulizing suspension (0.25 mg administered once a day (QD), 0.25 mg administered twice per day (BID), 0.5 mg BID or 1.0 mg QD) in pediatric asthmatic patients aged six months to eight years.
(§3) This was a multicenter, randomized double-blind, placebo-controlled, parallel-group study.
Patients were mild to moderate asthmatic children aged six months to eight years of age with a diagnosis of asthma as defined by the National Institutes of Health of the U.S. Department of Health and Human Services, including:
(a) exacerbations of cough and/or wheezing on a frequent basis, including nocturnal asthma, with infrequent severe exacerbations during the last six months; (b) daily use of at least one chronic asthma medication (which could have been an inhaled GCS) with periodic use of breakthrough medication for at least three months prior to Visit 1; and (c) basal FEV1 of […] of predicted and reversibility of […] at 15±5 minutes after a standard dose of inhaled bronchodilator for patients capable of performing consistent PFTs. […]
Primary efficacy variables were mean changes from baseline in daytime and nighttime asthma symptom scores over the 12-week treatment phase. The symptom scores were obtained as in Example 1.
Secondary efficacy variables were: (a) the number of days breakthrough (bronchodilator) medication was used; (b) spirometry test variables, including FEV1, FEF25-75, and FVC performed at clinic visits in the subset of patients capable of performing spirometry testing; (c) PEF measured daily in the morning and evening in the subset of patients capable of performing PEFs; and (d) proportion of patient discontinuations from the study.
as §1, §2
A total of 471 patients were evaluated for efficacy (all patients treated). Data are expressed as the adjusted mean change from baseline over the 12-week treatment phase, all patients treated, last value carried forward (*p≦0.050; **p≦0.010 and ***p≦0.001, versus placebo; “n” is the number of patients).

[3] = system: plasma cortisol levels (HPA-axis function); assay: Basal and post-ACTH-stimulated plasma cortisol levels, Example 1; settings: 0.25, 0.5, 1.0 mg once a day; baseline to week 12 versus placebo
Description: as §1, with “effects” for “events”, “function);” for “function) in a subset of patients;”, “signs,” for “signs”
as §2, with “patient outcomes,” for “patient discontinuations from the study,”, “which were” for “which was”
[…] is stimulated by injection (intravenous for young children and intramuscular for infants) of corticotropin one hour before morning blood sampling.

[4] = system: asthmatic children; assay: Phase III study of three dose levels of once-a-day budesonide nebulizing suspension and placebo in asthmatic children (Example 1); settings: for Asthma scores: Daytime / Asthma scores: Nighttime: 0-3 score; for proportion of patients discontinuing due to worsening asthma: placebo 23%; for total proportion of patients who were discontinued: placebo 28%
Description: The objectives of the study were to compare the relative efficacy and safety of a nebulizing suspension of budesonide (containing 0.25 mg, 0.5 mg, or 1.0 mg of budesonide per dose), administered once a day, in pediatric asthmatic patients aged six months to eight years.
as §3
Patients were asthmatic children who had not been treated with steroids in the 30 days prior to initiation of the study treatment.
Budesonide was administered once per day as a nebulized suspension, at 0.25 mg, 0.5 mg, or 1.0 mg per administration, via a Pari LC-Jet Plus® nebulizer connected to a Pari Master® compressor (Pari Respiratory Equipment, Inc., Richmond, Va.) with a face mask or a mouth piece. The placebo was the solvent used for the budesonide suspension (0.1 mg disodium edetate, 8.5 mg NaCl, 0.2 mg polysorbate, 0.28 mg anhydrous citric acid, and 0.5 mg sodium citrate per 1 ml water) but without budesonide.
Primary efficacy variables were mean changes from baseline in daytime and nighttime asthma symptom scores over the 12 week treatment phase. The symptom scores are based on the subjective evaluation by the patients or their parents based on a 0-3 rating system in which 0=no symptoms, 1=mild symptoms, 2=moderate symptoms, and 3=severe symptoms.
Secondary efficacy variables were: (a) patient outcomes, including the proportion of patients who were discontinued from the study for any reason and the proportion of patients who were discontinued from this study due to worsening asthma; (b) the number of days breakthrough (bronchodilator) medication was used; (c) spirometry test variables, including FEV1, FEF25-75 (forced expiratory flow during the middle half of the forced vital capacity in liters per second) and FVC (forced vital capacity in liters), performed at clinic visits in the subset of patients capable of performing spirometry testing; (d) PEF (peak expiratory flow in liters per minute) measured daily in the morning and evening in the subset of patients capable of performing PEF testing; (e) changes in health status measurements, including the Modified Functional Status II Scale Child Health Status Scale and the RAND General Health Index; and (f) differences in asthma-related health care utilization and indirect health care costs.
as §1, with “effects” for “events”, “function);” for “function) in a subset of patients;”, “signs,” for “signs”
as §2, with “patient outcomes,” for “patient discontinuations from the study,”, “which were” for “which was”
Results of nighttime and daytime asthma symptom scores, and the number of days of use of breakthrough medication are presented in Table 1. Data are expressed as the adjusted mean change from baseline over the 12-week treatment phase, all patients treated, last value carried forward (*p≦0.050, **p≦0.010, and ***p≦0.001 versus placebo (PBO); “n” is number of patients). Thus improvements are indicated by negative values of these variables.

[5] = 0.25 mg BID, n = 34, no unit in table
[6] = 0.5 mg BID, n = 29, no unit in table
[7] = 1.0 mg QD, n = 34, no unit in table
[8] = 0.25 mg once a day nebulized, adjusted mean change from baseline over 12 weeks, n = 91
[9] = 0.5 mg once a day nebulized, adjusted mean change from baseline over 12 weeks, n = 82
[10] = 1.0 mg once a day nebulized, adjusted mean change from baseline over 12 weeks, n = 93

CCCC1O[C@@H]2C[C@H]3[C@@H]4CCC5=CC(=O)C=C[C@]5(C)[C@H]4[C@@H](O)C[C@]3(C)[C@]2(C(=O)CO)O1 (stereo partly drawn) [Budesonide, budesonide]
HPA-axis suppression (basal and post-ACTH-stimulated plasma cortisol) [1]: no evidence of HPA-axis suppression
FEV1 ([2]; 0.25 mg BID, n = 33, no unit in table): 0.03
Evening PEF [2, 5]: 19.2* ^
Morning PEF [2, 5]: 23.0**
Daytime Asthma Symptom Score ([2]; 0.25 mg BID, n = 97): −0.40*
Nighttime Asthma Symptom Score ([2]; 0.25 mg BID, n = 97): −0.49***
Number of Days Use of Breakthrough Medication ([2]; 0.25 mg BID, n = 97): −5.22*** days
proportion of patients discontinuing due to worsening asthma ([2]; 0.25 mg BID, p=0.029): 13.1%
total proportion of patients who were discontinued ([2]; 0.25 mg BID): 21%
FEV1 ([2]; 0.25 mg QD, n = 31, no unit in table): 0.07
Evening PEF ([2]; 0.25 mg QD, n = 32, no unit in table): 16.8*
Morning PEF ([2]; 0.25 mg QD, n = 32, no unit in table (baseline PEF in L/min)): 10.9
Daytime Asthma Symptom Score ([2]; 0.25 mg QD, n = 92): −0.28
Nighttime Asthma Symptom Score ([2]; 0.25 mg QD, n = 93): −0.28
Number of Days Use of Breakthrough Medication ([2]; 0.25 mg QD, n = 93): −4.39* days
proportion of patients discontinuing due to worsening asthma ([2]; 0.25 mg QD): 16.0%
total proportion of patients who were discontinued ([2]; 0.25 mg QD): 21%
Evening PEF [2, 6]: 21.0**
FEV1 [2, 6]: 0.17*
Morning PEF [2, 6]: 24.8**
Daytime Asthma Symptom Score ([2]; 0.5 mg BID, n = 96): −0.46**
Nighttime Asthma Symptom Score ([2]; 0.5 mg BID, n = 96): −0.42**
Number of Days Use of Breakthrough Medication ([2]; 0.5 mg BID, n = 96): −4.92** days
proportion of patients discontinuing due to worsening asthma ([2]; 0.5 mg BID): 15.3%
total proportion of patients who were discontinued ([2]; 0.5 mg BID): 19%
Evening PEF [2, 7]: 14.1
FEV1 [2, 7]: 0.11
Morning PEF [2, 7]: 17.1*
Daytime Asthma Symptom Score ([2]; 1.0 mg QD, n = 93): −0.37*
Nighttime Asthma Symptom Score ([2]; 1.0 mg QD, n = 93): −0.40**
Number of Days Use of Breakthrough Medication ([2]; 1.0 mg QD, n = 93): −4.38* days
proportion of patients discontinuing due to worsening asthma ([2]; 1.0 mg QD): 21.1%
total proportion of patients who were discontinued ([2]; 1.0 mg QD): 31%
number of patients with clinically significant changes in nasal or oral fungal cultures between treatment groups ([2]; four regimens, 12 weeks): no apparent differences
type, incidence or severity of adverse events compared to placebo ([2]; in vivo): no clinically relevant differences
vital signs or physical examination outcomes between treatment groups ([2]; in vivo): no clinically relevant differences
HPA-axis suppression (basal and post-ACTH-stimulated plasma cortisol) [3]: no evidence of HPA-axis suppression
Asthma scores: Daytime [4, 8]: −0.57**
Asthma scores: Nighttime [4, 8]: −0.49***
FEV1 ([4]; 0.25 mg once a day, adjusted mean change from baseline over 12 weeks, n = 29): -0.01 L
Morning PEF ([4]; 0.25 mg once a day, adjusted mean change from baseline over 12 weeks, n = 44): 14.4 L/min
Days of use of bronchodilator ([4]; 0.25 mg once a day, adjusted mean change from baseline over 12 weeks, n = 91): −6.26* days
proportion of patients discontinuing due to worsening asthma ([4]; 0.25 mg once a day): 14%
total proportion of patients who were discontinued ([4]; 0.25 mg once a day): 19%
Asthma scores: Daytime [4, 9]: −0.46*
Asthma scores: Nighttime [4, 9]: −0.42**
FEV1(L) ([4]; 0.5 mg once a day, adjusted mean change from baseline over 12 weeks, n = 28): 0.03* L
Morning PEF ([4]; 0.5 mg once a day, adjusted mean change from baseline over 12 weeks, n = 41): 6.5 L/min
Days of use of bronchodilator ([4]; 0.5 mg once a day, adjusted mean change from baseline over 12 weeks, n = 82): −5.31* days
proportion of patients discontinuing due to worsening asthma ([4]; 0.5 mg once a day): 17%
total proportion of patients who were discontinued ([4]; 0.5 mg once a day): 24%
Asthma scores: Daytime [4, 10]: −0.50*
Asthma scores: Nighttime [4, 10]: −0.42**
FEV1(L) ([4]; 1.0 mg once a day, adjusted mean change from baseline over 12 weeks, n = 33): 0.03* L
Morning PEF ([4]; 1.0 mg once a day, adjusted mean change from baseline over 12 weeks, n = 55): 10.9 L/min
Days of use of bronchodilator ([4]; 1.0 mg once a day, adjusted mean change from baseline over 12 weeks, n = 93): −5.98* days
proportion of patients discontinuing due to worsening asthma ([4]; 1.0 mg once a day): 13%
total proportion of patients who were discontinued ([4]; 1.0 mg once a day, p=0.020): 14%
vital signs or physical examination differences between treatment groups ([4]; in vivo): no clinically relevant differences
clinically significant changes in nasal or oral fungal cultures between treatment groups ([4]; three doses once a day, 12 weeks): no clinically relevant differences
